Each structure is given as a SMILES string.

Chain of Lp(a) assembly in HepG2 cells overexpressing ApoA protein (P08519 20-2040): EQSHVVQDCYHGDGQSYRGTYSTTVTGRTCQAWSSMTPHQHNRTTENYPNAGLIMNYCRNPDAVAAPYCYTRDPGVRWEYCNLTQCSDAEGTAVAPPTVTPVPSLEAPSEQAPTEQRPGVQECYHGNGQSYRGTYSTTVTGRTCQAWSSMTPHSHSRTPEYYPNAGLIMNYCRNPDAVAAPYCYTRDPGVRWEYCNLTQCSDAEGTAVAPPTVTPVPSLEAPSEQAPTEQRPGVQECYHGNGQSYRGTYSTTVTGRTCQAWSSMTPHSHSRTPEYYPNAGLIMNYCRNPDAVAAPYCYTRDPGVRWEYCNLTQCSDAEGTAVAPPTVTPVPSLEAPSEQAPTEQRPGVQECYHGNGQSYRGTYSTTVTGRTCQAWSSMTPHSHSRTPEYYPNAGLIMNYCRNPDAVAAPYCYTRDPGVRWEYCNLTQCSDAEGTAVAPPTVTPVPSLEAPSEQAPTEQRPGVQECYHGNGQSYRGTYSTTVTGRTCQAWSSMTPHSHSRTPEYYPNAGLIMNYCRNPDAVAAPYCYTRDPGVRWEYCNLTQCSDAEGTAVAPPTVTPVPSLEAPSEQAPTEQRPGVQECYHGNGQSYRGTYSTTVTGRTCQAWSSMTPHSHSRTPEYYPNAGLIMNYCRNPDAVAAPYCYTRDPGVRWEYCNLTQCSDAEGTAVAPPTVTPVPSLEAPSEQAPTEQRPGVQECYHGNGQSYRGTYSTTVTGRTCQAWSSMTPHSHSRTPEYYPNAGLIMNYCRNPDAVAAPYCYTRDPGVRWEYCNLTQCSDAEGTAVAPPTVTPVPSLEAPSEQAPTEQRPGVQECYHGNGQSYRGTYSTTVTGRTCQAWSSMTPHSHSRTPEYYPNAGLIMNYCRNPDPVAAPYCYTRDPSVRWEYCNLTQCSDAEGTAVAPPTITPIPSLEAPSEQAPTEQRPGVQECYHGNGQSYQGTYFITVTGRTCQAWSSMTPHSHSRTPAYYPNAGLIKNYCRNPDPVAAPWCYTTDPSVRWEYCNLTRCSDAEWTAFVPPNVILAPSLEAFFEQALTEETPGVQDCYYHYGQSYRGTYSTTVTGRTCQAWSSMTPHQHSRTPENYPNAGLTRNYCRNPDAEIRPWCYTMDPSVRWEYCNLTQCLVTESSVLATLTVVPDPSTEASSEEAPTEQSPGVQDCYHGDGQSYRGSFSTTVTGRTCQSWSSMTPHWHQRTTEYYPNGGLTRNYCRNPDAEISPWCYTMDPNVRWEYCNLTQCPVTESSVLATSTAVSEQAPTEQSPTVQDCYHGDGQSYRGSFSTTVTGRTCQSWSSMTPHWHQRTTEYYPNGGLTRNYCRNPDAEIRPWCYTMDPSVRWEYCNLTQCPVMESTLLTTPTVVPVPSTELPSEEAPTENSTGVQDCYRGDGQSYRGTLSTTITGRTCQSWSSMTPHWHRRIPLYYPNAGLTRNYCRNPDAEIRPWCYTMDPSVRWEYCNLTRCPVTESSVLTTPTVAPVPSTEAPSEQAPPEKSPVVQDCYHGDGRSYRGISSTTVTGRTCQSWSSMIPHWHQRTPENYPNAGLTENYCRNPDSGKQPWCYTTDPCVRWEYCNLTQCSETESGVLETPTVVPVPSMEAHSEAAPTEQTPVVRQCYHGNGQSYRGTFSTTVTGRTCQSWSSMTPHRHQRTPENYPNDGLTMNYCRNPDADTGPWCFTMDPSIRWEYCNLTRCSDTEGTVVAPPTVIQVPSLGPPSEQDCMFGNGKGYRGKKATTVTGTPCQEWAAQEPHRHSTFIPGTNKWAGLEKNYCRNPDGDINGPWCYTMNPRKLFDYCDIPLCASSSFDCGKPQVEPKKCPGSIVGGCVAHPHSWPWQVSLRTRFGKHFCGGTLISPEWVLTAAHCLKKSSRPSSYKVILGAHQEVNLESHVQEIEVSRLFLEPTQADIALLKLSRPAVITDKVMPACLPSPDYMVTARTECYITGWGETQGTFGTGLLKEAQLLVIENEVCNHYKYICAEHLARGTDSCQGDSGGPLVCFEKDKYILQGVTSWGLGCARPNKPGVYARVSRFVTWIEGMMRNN

This assay concerns the target Lp(a) assembly in HepG2 cells overexpressing ApoA protein (Homo sapiens (Human), UniProt P08519). Description: ELISA assay on screening Lp(a) assembly inhibition. The format is cell-based. Particulars: HepG2 cells overexpressing ApoA protein, 24 h, ELISA of supernatant. How it is done:
Test Example 1 and Methods of ELISA Assay on Screening Lp(a) Assembly Inhibition
• 1) Preheated the culture media, DPBS, and pancreatin in a 37° C. water bath in advance. • 2) Digested cells with pancreatin, transferred the cell suspension to a 15 mL centrifuge tube, and centrifuged at 1000 rpm for 5 min. • 3) Resuspended the cells with culture media and transferred the cell suspension to a new T75 cell culture flask. • 4) Cultured at 37° C. in a 5% CO2 incubator.
• 1) Seeded HepG2 cells overexpressing of ApoA protein into a 96-well plate at 100 μL per well and incubated overnight for attachment. • 2) Replaced with fresh culture media the next day, then added diluted compounds, and cultured the cell plate in a 5% CO2, 37° C. incubator for 24 h.
• 1) Added 10 μL of 1.5 M EACA to each well. • 2) Centrifuged at 1000 rpm for 1 min, and transferred 100 μL of cell culture supernatant to a pre-coated ELISA plate.
• 1) Added 100 μL of capture antibody to each well of a pre-coated ELISA plate and incubated overnight at 25° C. • 2) Added 300 μL of washing solution to each well and washed 5 times for 1 min each time. • 3) Added 100 μL of blocking solution to each well and incubated at 25° C. for 2 h. • 4) Added 300 μL of washing solution to each well and washed 5 times for 1 min each time. • 5) Added 100 μL of sample to each well and incubated at 25° C. for 1 h. • 6) Added 300 μL of washing solution to each well and washed 5 times for 1 min each time. • 7) Added 100 μL of detection antibody to each well and incubated at 25° C. for 1 h. • 8) Added 300 μL of washing solution to each well and washed 5 times for 1 min each time. • 9) Added 100 μL substrate solution (Color Reagent A: Color Reagent B, 1:1) to each well and incubated for 20 min at 25° C. in the dark. • 10) Added […] of stop solution to each well, gently blowed and sucked several times with the pipette tip, and read within 5 min.
[formula] • X: cpd concentration • Y: inhibition % • Top and Bottom: Plateaus in same units as Y • log IC50: same log units as X • HillSlope: Slope factor or Hill slope
In turn, `O=C(O)C(Cc1cccc(C(=O)N(CCOc2cccc(C[C@H](C(=O)O)[C@H]3CCNC3)c2)Cc2cccc(C[C@H](C(=O)O)[C@H]3CCNC3)c2)c1)C1CCNC1` (stereo in doubt) [Compound 97, (S)-3-(3-((3-((S)-2-carboxy-2-((R)-pyrrolidin-3-yl)ethyl)-N-(2-(3-((S)-2-carboxy-2-((R)-pyrrolidin-3-yl)ethyl)phenoxy)ethyl)benzamido)methyl)phenyl)-2-((R)-pyrrolidin-3-yl)propanoic acid] gave an IC50 of 1.46 nM.
`O=C(Cc1cccc(CC(C(=O)O)C2CCNC2)c1)NCc1cccc(C[C@H](C(=O)O)[C@H]2CCNC2)c1` (stereo in doubt) [Compound 143, (S)-3-(3-(2-((3-((S)-2-carboxy-2-((R)-pyrrolidin-3-yl)ethyl)benzyl)amino)-2-oxoethyl)phenyl)-2-((R)-pyrrolidin-3-yl)propanoic acid] displayed a half-maximal inhibitory concentration (IC50) of 3.81 nM. Compared with the last compound, the IC50 is about 2.6-fold higher.
As to `N[C@@H](CCCCN(Cc1cc(F)cc(C[C@H](C(=O)O)[C@H]2CCNC2)c1)Cc1cc(F)cc(C[C@H](C(=O)O)[C@H]2CCNC2)c1)C(=O)O` [Compound 5, (2S,2′S)-3,3′-(((((S)-5-amino-5-carboxypentyl)azanediyl)bis(methylene))bis(5-fluoro-3,1-phenylene))bis(2-((R)-pyrrolidin-3-yl)propanoic acid)], the 50% inhibitory concentration (IC50) was determined as 4.12 nM.
`O=C(O)[C@@H](Cc1cccc(CN(Cc2cccc(C[C@H](C(=O)O)[C@H]3CCNC3)c2)Cc2coc3ccc(C[C@H](C(=O)O)[C@H]4CCNC4)cc23)c1)[C@H]1CCNC1` [Compound 6, (2S,2′S)-3,3′-(((((5-((S)-2-carboxy-2-((R)-pyrrolidin-3-yl)ethyl)benzofuran-3-yl)methyl)azanediyl)bis(methylene))bis(3,1-phenylene))bis(2-((R)-pyrrolidin-3-yl)propanoic acid)]: the IC50 turned out to be 1.13 nM.
In turn, `O=C(O)[C@@H](Cc1cccc(CN(Cc2cccc(C[C@H](C(=O)O)[C@H]3CCNC3)c2)Cc2cc3ccc(C[C@H](C(=O)O)[C@H]4CCNC4)cc3s2)c1)[C@H]1CCNC1` [Compound 11, (2S,2′S)-3,3′-(((((6-((S)-2-carboxy-2-((R)-pyrrolidin-3-yl)ethyl)benzo[b]thiophen-2-yl)methyl)azanediyl)bis(methylene))bis(3,1-phenylene))bis(2-((R)-pyrrolidin-3-yl)propanoic acid)] displayed an IC50 of 0.89 nM. This IC50 and that of the compound before are within 1.5-fold of each other.
With `O=C(O)[C@@H](Cc1cccc(CN(Cc2cccc(C[C@H](C(=O)O)[C@H]3CCNC3)c2)C(=O)c2cc(F)cc(C[C@H](C(=O)O)[C@H]3CCNC3)c2)c1)[C@H]1CCNC1` [Compound 12, (2S,2′S)-3,3′-((((3-((S)-2-carboxy-2-((R)-pyrrolidin-3-yl)ethyl)-5-fluorobenzoyl)azanediyl)bis(methylene))bis(3,1-phenylene))bis(2-((R)-pyrrolidin-3-yl)propanoic acid)], the IC50 turned out to be 1.17 nM.
Next, `O=C(O)[C@@H](Cc1ccc2occ(CN(Cc3coc4ccc(C[C@H](C(=O)O)[C@H]5CCNC5)cc34)Cc3coc4ccc(C[C@H](C(=O)O)[C@H]5CCNC5)cc34)c2c1)[C@H]1CCNC1` [Compound 47, (2S,2′S,2″S)-3,3′,3″-((nitrilotris(methylene))tris(benzofuran-3,5-diyl))tris(2-((R)-pyrrolidin-3-yl)propanoic acid)]: 1.03 nM; `O=C(O)[C@@H](Cc1ccc2scc(CN(Cc3csc4ccc(C[C@H](C(=O)O)[C@H]5CCNC5)cc34)Cc3csc4ccc(C[C@H](C(=O)O)[C@H]5CCNC5)cc34)c2c1)[C@H]1CCNC1` [Compound 49, (2S,2′S,2″S)-3,3′,3″-((nitrilotris(methylene))tris(benzo[b]thiophene-3,5-diyl))tris(2-((R)-pyrrolidin-3-yl)propanoic acid)]: 3.22 nM; `O=C(O)[C@@H](Cc1cccc(CCN(CCc2cccc(C[C@H](C(=O)O)[C@H]3CCNC3)c2)CCc2cccc(C[C@H](C(=O)O)[C@H]3CCNC3)c2)c1)[C@H]1CCNC1` [Compound 65, (2S,2′S,2″S)-3,3′,3″-((nitrilotris(ethane-2,1-diyl))tris(benzene-3,1-diyl))tris(2-((R)-pyrrolidin-3-yl)propanoic acid)]: 0.87 nM.
Next, `O=C(O)[C@@H](Cc1ccc2occ(CCN(CCc3coc4ccc(C[C@H](C(=O)O)[C@H]5CCNC5)cc34)CCc3coc4ccc(C[C@H](C(=O)O)[C@H]5CCNC5)cc34)c2c1)[C@H]1CCNC1` [Compound 67, (2S,2′S,2″S)-3,3′,3″-((nitrilotris(ethane-2,1-diyl))tris(benzofuran-3,5-diyl))tris(2-((R)-pyrrolidin-3-yl)propanoic acid)]: 8.55 nM.
Next, `O=C(O)[C@@H](Cc1cccc(CCN(CCOc2cccc(C[C@H](C(=O)O)[C@H]3CCNC3)c2)CCc2cccc(C[C@H](C(=O)O)[C@H]3CCNC3)c2)c1)[C@H]1CCNC1` [Compound 71, (2S,2′S)-3,3′-((((2-(3-((S)-2-carboxy-2-((R)-pyrrolidin-3-yl)ethyl)phenoxy)ethyl)azanediyl)bis(ethane-2,1-diyl))bis(3,1-phenylene))bis(2-((R)-pyrrolidin-3-yl)propanoic acid)]: 0.54 nM; `O=C(CN(CCOc1cccc(C[C@H](C(=O)O)[C@H]2CCNC2)c1)CC(=O)c1cccc(C[C@H](C(=O)O)[C@H]2CCNC2)c1)c1cccc(C[C@H](C(=O)O)[C@H]2CCNC2)c1` [Compound 80, (2S,2′S)-3,3′-((2,2′-((2-(3-((S)-2-carboxy-2-((R)-pyrrolidin-3-yl)ethyl)phenoxy)ethyl)azanediyl)bis(acetyl))bis(3,1-phenylene))bis(2-((R)-pyrrolidin-3-yl)propanoic acid)]: 2.31 nM; `O=C(O)[C@@H](Cc1cccc(CCN(CCc2cccc(C[C@H](C(=O)O)[C@H]3CCNC3)c2)C(=O)COc2cccc(C[C@H](C(=O)O)[C@H]3CCNC3)c2)c1)[C@H]1CCNC1` [Compound 81, (2S,2′S)-3,3′-((((2-(3-((S)-2-carboxy-2-((R)-pyrrolidin-3-yl)ethyl)phenoxy)acetyl)azanediyl)bis(ethane-2,1-diyl))bis(3,1-phenylene))bis(2-((R)-pyrrolidin-3-yl)propanoic acid)]: 0.85 nM.
As for `[2H]C([2H])(c1cccc(C[C@H](C(=O)O)[C@H]2CCNC2)c1)N(Cc1cccc(C[C@H](C(=O)O)[C@H]2CCNC2)c1)C([2H])([2H])c1cccc(C[C@H](C(=O)O)[C@H]2CCNC2)c1` [Compound 93, (2S,2′S)-3,3′-((((3-((S)-2-carboxy-2-((R)-pyrrolidin-3-yl)ethyl)benzyl)azanediyl)bis(methylene-d2))bis(3,1-phenylene))bis(2-((R)-pyrrolidin-3-yl)propanoic acid)], the IC50 was 0.81 nM.
Next, `[2H]C([2H])(c1cccc(C[C@H](C(=O)O)[C@H]2CCNC2)c1)N(Cc1cccc(C[C@H](C(=O)O)[C@H]2CCNC2)c1)Cc1cccc(C[C@H](C(=O)O)[C@H]2CCNC2)c1` [Compound 94, (2S,2′S)-3,3′-(((((3-((S)-2-carboxy-2-((R)-pyrrolidin-3-yl)ethyl)phenyl)methyl-d2)azanediyl)bis(methylene))bis(3,1-phenylene))bis(2-((R)-pyrrolidin-3-yl)propanoic acid)]: 0.65 nM.

The values above are taken from patent US20250179055A1, “Substituted 2-(pyrrolidine-3-yl)acetic acid derivative, preparation method and use thereof” (INNOVSTONE THERAPEUTICS LIMITED, priority 2023, published 2025).
